The text below walks through data of a melting point compilation (Tetko et al.; mined from patent text by program, amines drawn as free bases though some values may be those of a salt).

SMILES strings stand for the structures.

As to `O=C(NC1CCCCC1)c1c(O)c2ccccc2n(Cc2ccc(F)cc2)c1=O`, the melting point (commonly the temperature of the solid-liquid transition) was 168 °C.

For the compound `CS(=O)(=O)N1CCC(Nc2nc(Nc3ccc(F)c(Cl)c3)nc(OCC(F)(F)F)n2)C1` (centres undefined), the melting point was in the range of 199 to 200 °C.

For the compound `ClC(Cl)c1cccc2nnsc12`, the melting point lay within 131 to 133 °C.

Turning to `c1ccc(Nc2ncnc3[nH]nc(Nc4ccccc4)c23)cc1`, the melting point was in the range of 263 to 264 °C.

Consider `O=C(NCCN1CCCC1)c1ccc(OCc2ccc(-c3ccccc3)cc2)nc1`, for which the melting point lay in the range of 153 to 157 °C.

Regarding `O=C1CC(C(=O)NC(Cc2c[nH]cn2)C(=O)OCc2ccccc2)N1` (centres undefined), the melting point was in the range of 196 to 199 °C.

In turn, `Cc1nc2c(N)nc3ccccc3c2n1CCCCNC(=O)Nc1ccccc1` had a melting point of 172 °C.

In the case of `COc1ccc2cc(C3CCN(CC(O)COc4ccccc4C=C4CCOC4=O)CC3)ccc2c1` (centres undefined), the melting point is 148 to 150 °C.

For `CCCCNC(=O)C1=C(C(=O)Nc2cc(OC3CCCC3)c(Cl)cc2F)CCCC1`, the melting point was 142 to 144 °C.

In the case of `COC(=O)c1nc2n(n1)-c1ccccc1N(c1cccc(C)c1C)C2`, the melting point lay in the range of 170 to 172 °C.

The compound `CCc1c[nH]c(=O)c(N)c1Sc1cc(C)cc(C)c1` came in with a melting point of 208 to 209 °C.

`CC(=O)Oc1ccccc1[C@@H]1SC(C)(C)[C@H](C(=O)O)N1C(C)=O` displayed a melting point of 214 to 216 °C.

Regarding `O=C(O)CCCCCCCCCCCNC(=O)CCCCCCCCCCBr`, the melting point amounted to 122 °C.

Take `O=C(Nc1nc(C(=O)NC2CN3CCC2CC3)cs1)c1ccc(OCc2ccccc2)cc1` (centres undefined): the melting point is 196 °C.

In turn, `CC(C)(C)N(N)C(=O)c1ccccc1` had a melting point of 124 to 125 °C.

In turn, `CCN1OCC(=O)N(c2cc(Cl)ccc2C)C1=S` came in with a melting point of 119 to 121 °C.

On to `O=C(Cc1cccc(C(F)(F)F)c1)Nc1c(Br)cccc1Br`, for which the melting point lay in the range of 169 to 170 °C.

With `CCOC(Cc1ccc(OCCCc2nc(-c3ccc(C(F)(F)F)cc3)oc2C)c2ccsc12)C(=O)O` (centres undefined), the melting point lay in the range of 112 to 114 °C.

As to `COc1ccc(/C=C/c2nc3c(c(=O)n(C)c(=O)n3C)n2C)c(OC)c1C`, the melting point is 253 to 254 °C.

Compound `CCOC(=O)Cc1c(CC)nn(-c2ccccc2)c1CC` registered a melting point of 129 to 130 °C.

`CSCCCn1cc(C(Cc2ccccc2Br)=NO)c2ccc(Cl)c(Cl)c21` displayed a melting point of 139 to 142 °C.

`CSC1C(=O)Nc2c(-c3ccccc3)cccc21` (centres undefined) came in with a melting point of 164 to 166 °C.

On to `CCCCCCCCNCC(O)COc1ccc(SC)cc1C` (centres undefined), for which the melting point was in the range of 59 to 60 °C.

`O=S(=O)(NCc1ccncc1)c1ccc(Br)s1` came in with a melting point of 159 °C.

Regarding `Cn1nc(-c2ccc(F)cc2)c(-c2ccncc2)c1CCCc1ccc([N+](=O)[O-])cc1`, the melting point was in the range of 129 to 132 °C.

On to `Cc1cc(C(=O)N2Cc3ccc(C(=O)O)n3Cc3ccccc32)ccc1C1=CCCc2ccccc21`, for which the melting point lay in the range of 150 to 153 °C.

In turn, `CCCCCCC(C)(C)c1ccc(C2=CC(O)CCC2)c(O)c1` (centres undefined) returned a melting point of 87 to 88 °C.

The compound `CS(=O)(=O)c1ccc(-c2cnn(CC(F)(F)F)c(=O)c2NCCC#N)cc1` came in with a melting point of 172 to 174 °C.

`CCOC(=O)C1(C)Oc2c(OC)cccc2C1=O` (centres undefined) yielded a melting point of 81 to 82 °C.

Turning to `COc1cccc(C(=O)NC2(C(=O)c3cc(C)cc(C)c3)CC2)c1C`, the melting point was in the range of 174 to 176 °C.

The compound `Cc1ccc(OCCCl)c(C(N)=O)c1` showed a melting point of 111 to 113 °C.

As for `CN1C(=N)N(c2ccccc2)CC1=O`, the melting point lay in the range of 169 to 170 °C.

`Cc1cc(NC(=O)c2cc(C#N)cc(C)n2)ccn1`: the melting point is 302 °C.

`CC(C)c1ccc(N2C(=O)CN(c3cccc(C(=O)O)c3)C2=O)cc1`: the melting point lay within 249 to 252 °C.

`C=CCNC(=O)C(C)N` (centres undefined) yielded a melting point of 77.5 to 78 °C.

`COc1cn(-c2ccc(-n3cc(F)c(F)c3)cc2OC(F)F)nc(-c2ccnn2-c2ccccc2)c1=O` came in with a melting point of 168 to 170 °C.

`COc1cc2c(Nc3ccc(Sc4ccccn4)cc3)c(C#N)cnc2cc1N1CCC(N2CCCC2)CC1` registered a melting point of 182 to 184 °C.

Compound `CN=C(SC)N(C)Cc1cc(C)nc(C)c1` displayed a melting point of 131 to 133 °C.

As to `CC(c1ccccc1)N1CC(CF)(C(=O)N(Cc2ccccc2)Cc2ccccc2)CC1=O` (centres undefined), the melting point is 113 to 115 °C.

`CS(=O)(=O)NC(=O)CCCCOc1cccc(O)c1C=O` yielded a melting point of 136 to 138 °C.

As for `Nc1cc(N)c(-c2ccc([N+](=O)[O-])cc2-c2cccc(Cl)c2Cl)cn1`, the melting point was 237 to 239 °C.

`COc1ccc(S(=O)(=O)Nc2cccnc2Nc2ccc(F)cc2)cc1` had a melting point of 196 to 197 °C.

Regarding `O=C(NC[C@@H]1CN2C(=O)C[C@H]2O1)c1ccccc1` (racemic), the melting point lay in the range of 115 to 116 °C.

The compound `CC[C@H]1[C@@H](O)C(F)(F)C(=O)N1c1ccc(C#N)c(OC)c1` yielded a melting point of 161 to 164 °C.

The compound `C=CCNC(=O)N1CC(c2ccc(C(C)(C)C)cc2)C1` gave a melting point of 98 to 99 °C.

With `O=C1Nc2ccc(Cl)cc2C1(Cl)c1cccc2c1OCO2` (centres undefined), the melting point is 241 °C.

On to `COc1ccc(Oc2c(SCc3ccccc3)cc(C(=O)O)cc2S(N)(=O)=O)cc1`, for which the melting point fell in the range of 215 to 216 °C.

On to `COc1ccc(-c2cc3c(s2)c(=O)c(SC)cn3C)cc1`, for which the melting point was in the range of 182 to 184 °C.

Take `CCCCc1nc(COC)c(C(=O)OC)n1Cc1ccc(-c2ccccc2C(=O)O)cc1`: the melting point lay within 106 to 110 °C.

`CCCC(CCC)n1c(CC)nc2c1c(=O)n(C)c(=O)n2-c1c(C)cc(C)cc1C` displayed a melting point of 195 to 196 °C.

On to `Cc1c(-c2ccccc2)n(-c2ccccc2)c(-c2ccc(C#N)cc2)cc1=O`, for which the melting point was in the range of 229 to 233 °C.

In the case of `Clc1cc(CCc2ccccn2)c2oc(-c3ccc4[nH]nnc4c3)nc2c1`, the melting point lay within 242 to 244 °C.

On to `CC(C)(Oc1ccc(CCC(=O)c2ccc(-c3ccc(C(F)(F)F)cc3)s2)cc1F)C(=O)O`, for which the melting point lay within 150 to 151 °C.

In turn, `Cc1[nH]c(CN(C)C)c(C)c1-c1ccnc(Nc2ccc(F)cc2)n1` came in with a melting point of 88.4 to 91.6 °C.

For `CCCCN(C)C(=NC#N)NCc1cccnc1`, the melting point was in the range of 65 to 69 °C.

Turning to `CCn1cc(C(=O)c2sc(NC(=O)c3ccncc3)nc2-c2ccco2)ccc1=O`, the melting point was in the range of 295 to 296 °C.

`Cc1cc2c(c(C)c1NC=O)C(c1ccc(C(C)C)cc1)CO2` (centres undefined) came in with a melting point of 193 to 196 °C.

As for `C=C1CCC(c2ccc(N3CC(COC)OC3=O)cc2)CC1` (racemic), the melting point is 63 to 65 °C.

`C#CCOC1c2ccccc2Oc2ccccc21` returned a melting point of 74 to 76 °C.

The compound `CC(C)n1nc(-c2sc(Nc3cccnc3)nc2-c2ccccc2)ccc1=O` registered a melting point of 226 to 228 °C.

Take `COC(=O)c1ccc(C=CC(=O)N2CCc3c([nH]c4ccccc34)C2c2ccc3c(c2)OCO3)cc1` (centres undefined): the melting point worked out at 211 °C.

Turning to `COc1ccc(N2CCN(c3c(C)c(C)c4c(c3C3CC3)CC(C)(C)O4)CC2)cc1`, the melting point lay in the range of 121 to 122 °C.

For the compound `CC(=O)c1c(-c2ccccc2)oc(-c2ccncc2)c1C`, the melting point fell in the range of 108 to 110 °C.

As for `N#CC1C(=O)NC(=O)C(C#N)C12CCN(Cc1ccccc1)CC2` (centres undefined), the melting point was in the range of 179 to 181 °C.
